Ends that are not written are not given here.

Data set [1] in a line: Red edge excitation shift (REES) solution aggregation assay. It is filed as physicochemical. The note with it: 2 μM peptide in PBS pH 7.0, λex 280 to 307 nm, emission 310 to 410 nm, Trp fluorescence, average of three replicates. The text has this:
All fluorescence spectroscopy experiments were preformed using a JY-Horiba Fluoromax4 instrument. Excitation and emission slit widths were kept consistent at 2.5 nm. Semi-micro quartz cuvettes were utilized for each experiment. The following formula was used to calculate a spectral barycenter for each experiment: (1) B=∑λ*i/∑i where B is the barycenter, λ is the wavelength, and i is the intensity at the specified wavelength. An entire emission spectrum from 300-400 was used the carry out the calculation of barycenter.
Red edge excitation shift (REES) experiments utilized excitation at 6 different wavelengths (λex = 280, 290, 295, 300, 305, and 307 nm) and the same emission range of 310 to 410 nm. Samples were similarly prepared as above. A blank only containing PBS buffer was used as background to correct the spectra after each addition.
Aggregation of peptides was assessed utilizing the intrinsic fluorescence properties of the Trp residue in the L1 sequence. […] Differences in the side chain motion/dynamics of the Trp residue and the local environment around the Trp can be observed by monitoring the red-edge excitation shifts (REES). […]

The nature of data set [2]: Peptide binding to lipid vesicles by Trp emission barycenter shift. It is filed as physicochemical. The note with it: anionic and zwitterionic SUVs titrated into 2 μM peptide in PBS; λex 280 nm, λem 300 to 400 nm. How it is done:
To form small unilamellar vesicles (SUVs) sonication or ethanol dilution methods were implemented ([Caputo & London, 2019]). In all cases, lipid vesicle preparation was the same. Depending on the lipid composition, appropriate volumes of lipids in chloroform were mixed in a glass tube and then allowed to dry under N2 gas for 15 minutes. The lipid films were then placed in a vacuum desiccator and allowed to dry further under a vacuum for 1 hour. For vesicles formed through ethanol dilution methods, 10 μL of pure ethanol was added to the film, and then vortex until the dissipation of the film. While continuing to vortex, the appropriate amount of PBS was added. For vesicles formed using the method of sonication, PBS was added directly to the tube while being vortexed to create multilamellar vesicles (MLVs). […]
All fluorescence spectroscopy experiments were preformed using a JY-Horiba Fluoromax4 instrument. […]
Considering that the first step in the mechanism of action of many AMPs is the binding to the bacterial cell surface, binding to model lipid vesicles was performed. […] The impact of lipid composition on binding to model vesicles was investigated using a simple vesicle titration experiment in which Trp fluorescence was measured after addition of lipid vesicles. […]

Regarding FFKEFWTKMKGAGKAFFGKFKGFF [L1F], the REES total shift in data set [1] is listed as ~ 2 nm. Also, the “Extent of spectral shift (Trp emission barycenter) on binding lipid vesicles” value in data set [2] is ~ 14 nm.
